Assay results published in patent US20020183383A1, “Pharmaceutical compositions” (priority 2001, published 2002).

How the values were obtained:
[1] = test system: subjects with primary hypercholesterolemia; test: Safety and tolerability in the same 6-week clinical study (adverse events, laboratory analyses); assay type: in vivo, human
Experimental: (§1) Objectives: The primary objective of this study was to evaluate the dose-related cholesterol (LDL-C) lowering efficacy of pravastatin 40 mg, 80 mg and 160 mg after 6 weeks of once-daily oral administration in subjects with primary hypercholesterolemia. Secondary objectives were: 1) to evaluate the dose-related changes in serum total cholesterol (TC), high-density lipoprotein cholesterol (HDL-C), and triglycerides (TG) concentrations after 6 weeks of once-daily oral administration of pravastatin 40 mg, 80 mg and 160 mg in subjects with primary hypercholesterolemia; 2) to estimate the dose-related changes in serum LDL-C, TC, HDL-C, and TG concentrations after 2 weeks and 4 weeks of once-daily oral administration of pravastatin 40 mg, 80 mg and 160 mg in subjects with primary hypercholesterolemia; and 3) to ascertain the safety and tolerability of the treatment regimens after 6 weeks of once-daily oral administration of pravastatin 40 mg, 80 mg and 160 mg in subjects with primary hypercholesterolemia.
(§2) Study Design and Methodology: This study was a multicenter, randomized, double-blind placebo-controlled, parallel design trial to determine the LDL-C lowering efficacy of pravastatin over a dose range of 40-160 mg in subjects with primary hypercholesterolemia. After at least 2 weeks of dietary stabilization and discontinuation of any previous lipid-lowering agents for a minimum of 4 weeks, subjects entered into a 4-week single-blind placebo lead-in period. At the end of the placebo lead-in period, subjects with mean serum LDL-C≧160 mg/dL and mean serum TG≦500 mg/dL were randomized (1:1:1:1) to one of four treatment groups: pravastatin 40 mg, pravastatin 80 mg, pravastatin 160 mg or placebo. Blinded treatment was administered once-daily at bedtime for 6 weeks.
Medical history, physical examinations, laboratory analyses, and clinical adverse events (AEs).

[2] = test system: subjects with primary hypercholesterolemia; test: Multicenter, double-blind, placebo-controlled, parallel study of lipid (LDL-C, TC, HDL-C, TG) lowering efficacy of once-daily pravastatin 40-160 mg; assay type: in vivo, human; settings: for HDL-C % Δ, adjusted percent change from baseline (ANCOVA) / LDL-C (calculated) % Δ, adjusted percent change from baseline (ANCOVA) / TC % Δ, adjusted percent change from baseline (ANCOVA) / TG % Δ, adjusted percent change from baseline (ANCOVA) / increase in HDL-C / mean reduction in TC / mean reduction in TG: Week 6; for mean reduction in LDL-C: 6 weeks of treatment
Experimental: A Multicenter, Double-Blind, Placebo-Controlled, Parallel Study to Determine the LDL-C Lowering Efficacy of Pravastatin Administered Once Daily Over the Dosage Range of 40 mg Through 160 mg.
as §1
Duration of Treatment: 6 weeks
as §2
Number of Subjects: 190 randomized; 189 received randomized study drug, 184 completed the study.
Diagnosis and Main Criteria for Inclusion: Consenting men, or postmenopausal and surgically sterile women, aged 18 through 65 years were eligible to enroll in the study if they met the following criteria: 1) mean serum LDL-C≧160 mg/dL (the LDL-C concentration of the lower qualifying specimen were to be within 15% of the higher qualifying specimen) and 2) mean serum TG≦500 mg/dL obtained from two consecutive qualifying specimens.
Test Product, dose, mode of administration: pravastatin, 40 mg tablets, oral
Primary Efficacy Outcome Measure:
Change from baseline in calculated serum LDL-C at Week 6 of double-blind treatment.
Secondary Efficacy Outcome Measures:
Change from baseline in serum LDL-C at Weeks 2 and 4 of double blind treatment.
Change from baseline in serum TC, HDL-C, and TG at Weeks 2,4, and 6 of double-blind treatment.
Analyses of covariance with terms for treatment and baseline.
A contrast of the dose groups from the analysis of covariance model.

[3] = pravastatin 40 mg once daily, 6 weeks, N=46
[4] = pravastatin 80 mg once daily, 6 weeks, N=49
[5] = pravastatin 160 mg once daily, 6 weeks, N=48
[6] = pravastatin 40 mg once daily, Week 6, N=45
[7] = pravastatin 80 mg once daily, Week 6, N=48
[8] = pravastatin 160 mg once daily, Week 6, N=48

With `CC[C@H](C)C(=O)O[C@H]1C[C@H](O)C=C2C=C[C@H](C)[C@H](CC[C@@H](O)C[C@@H](O)CC(=O)O)[C@H]21` [Pravastatin, Pravastatin sodium] the “subjects with CK elevation >4×ULN” value ([1]; 40 mg pravastatin (one subject)) was 2.2%, the “subjects discontinued due to gastrointestinal events considered possibly related to study drug” value ([1]; 160 mg pravastatin treatment group (two subjects)) was 1.4% and the “tolerability / safety in words” value ([1]; 40, 80 and 160 mg once daily for 6 weeks) was “appears safe and well tolerated”. For the same molecule, the “deaths or serious adverse events in the study” value ([1]; all treatment groups, 6 weeks) was “no deaths or serious adverse events”, the “marked abnormalities (MAs) for ALT and AST” value ([1]; all treatment groups, 6 weeks) was “No marked abnormalities” and the “Number of randomized subjects with ADE (adverse drug experience), n (%)” value (shortened to “Number of randomized subjects with ADE … (%)”) [1, 3] was 5 (10.9%). For the same molecule, the “Number of randomized subjects with AE (total), n (%)” value (“Number … (total), n (%)” below) [1, 3] was 19 (43%), the “Number of randomized subjects with Discontinuations, n (%)” value (“Number … with Discontinuations, n (%)” for short) [1, 3] was 0 and the “Number of randomized subjects with SAE (serious adverse event)” value (“Number of randomized subjects with SAE” below) [1, 3] was 0. The “Number of randomized subjects with ADE … (%)” value [1, 4] was 14 (28.6%), the “Number … (total), n (%)” value [1, 4] was 24 (49.0%) and the “Number … with Discontinuations, n (%)” value [1, 4] was 0. The “Number of randomized subjects with SAE” value [1, 4] was 0, the “frequency of adverse events by body system” value ([1]; pravastatin 160 mg dose) was “higher frequency of adverse events in the gastrointestinal and respiratory body systems” and the “Number of randomized subjects with ADE … (%)” value [1, 5] was 17 (35.4%). For the same molecule, the “Number … (total), n (%)” value [1, 5] was 29 (60.4%), the “Number … with Discontinuations, n (%)” value [1, 5] was 2 (1.4%) and the “Number of randomized subjects with SAE” value [1, 5] was 0. The “absolute reduction in LDL cholesterol as the dose was doubled” value ([2]; dose doubled from 40 mg to 80 mg, and again from 80 mg to 160 mg) was “greater than 6%”, the “additional LDL-C lowering with every doubling of the dose” value ([2]; doses of 40-160 mg once daily, 6 weeks) was 8% and the “LDL-C (calculated) Week 6 Mean” value ([2]; pravastatin 40 mg once daily oral at bedtime, Week 6, N=45) was 139.0 mg/dL. For the same molecule, the “HDL-C % Δ, adjusted percent change from baseline (ANCOVA)” value (from here on “HDL-C % Δ, adjusted percent change”) ([2]; pravastatin 40 mg once daily) was 11.4%, the “LDL-C (calculated) % Δ, adjusted percent change from baseline (ANCOVA)” value ([2]; pravastatin 40 mg once daily) was −28.6% and the “TC % Δ, adjusted percent change from baseline (ANCOVA)” value (“TC % Δ, adjusted percent change” for short) ([2]; pravastatin 40 mg once daily) was −20.0%. The “TG % Δ, adjusted percent change from baseline (ANCOVA)” value (from here on “TG % Δ, adjusted percent change”) ([2]; pravastatin 40 mg once daily) was −15.8%, the “HDL-C Week 6 Mean” value [2, 6] was 52.8 mg/dL and the “TC Week 6 Mean” value [2, 6] was 219.8 mg/dL. The “TG Week 6 Mean” value [2, 6] was 140.9 mg/dL, the “mean reduction in LDL-C” value ([2]; pravastatin 40 mg) was 29% and the “increase in HDL-C” value ([2]; pravastatin 40 mg) was 11.4%. For the same molecule, the “mean reduction in TC” value ([2]; pravastatin 40 mg) was 20%, the “mean reduction in TG” value ([2]; pravastatin 40 mg) was 16% and the “LDL-C (calculated) Week 6 Mean” value ([2]; pravastatin 80 mg once daily oral at bedtime, Week 6, N=48) was 124.7 mg/dL. The “HDL-C % Δ, adjusted percent change” value ([2]; pravastatin 80 mg once daily) was 8.4%, the “LDL-C (calculated) % Δ, adjusted percent change from baseline (ANCOVA)” value ([2]; pravastatin 80 mg once daily) was −36.7% and the “TC % Δ, adjusted percent change” value ([2]; pravastatin 80 mg once daily) was −26.3%. The “TG % Δ, adjusted percent change” value ([2]; pravastatin 80 mg once daily) was −14.2%, the “HDL-C Week 6 Mean” value [2, 7] was 45.0 mg/dL and the “TC Week 6 Mean” value [2, 7] was 201.6 mg/dL. For the same molecule, the “TG Week 6 Mean” value [2, 7] was 158.8 mg/dL, the “mean reduction in LDL-C” value ([2]; pravastatin 80 mg) was 37% and the “increase in HDL-C” value ([2]; pravastatin 80 mg) was 8.4%. For the same molecule, the “mean reduction in TC” value ([2]; pravastatin 80 mg) was 26%, the “mean reduction in TG” value ([2]; pravastatin 80 mg) was 14% and the “LDL-C (calculated) Week 6 Mean” value ([2]; pravastatin 160 mg once daily oral at bedtime, Week 6, N=47) was 108.4 mg/dL. For the same molecule, the “HDL-C % Δ, adjusted percent change” value ([2]; pravastatin 160 mg once daily) was 9.6%, the “LDL-C (calculated) % Δ, adjusted percent change from baseline (ANCOVA)” value ([2]; pravastatin 160 mg once daily) was −45.2% and the “TC % Δ, adjusted percent change” value ([2]; pravastatin 160 mg once daily) was −34.2%. The “TG % Δ, adjusted percent change” value ([2]; pravastatin 160 mg once daily) was −26.9%, the “HDL-C Week 6 Mean” value [2, 8] was 46.4 mg/dL and the “TC Week 6 Mean” value [2, 8] was 181.3 mg/dL. For the same molecule, the “TG Week 6 Mean” value [2, 8] was 132.0 mg/dL, the “mean reduction in LDL-C” value ([2]; pravastatin 160 mg) was 45% and the “increase in HDL-C” value ([2]; pravastatin 160 mg) was 9.6%. The “mean reduction in TC” value ([2]; pravastatin 160 mg) was 34% and the “mean reduction in TG” value ([2]; pravastatin 160 mg) was 27%.
